Assay results taken from patent US6620831B2, “Indazoles substituted with 1,1-dioxoisothiazolidine useful as inhibitors of cell proliferation” (LG Life Sciences Ltd., priority 2000, dated 2003).

Target: T1, CDK2/cyclin A (Homo sapiens, UniProt P24941)
T1 construct: made in house; host or cells: insect ('worm') cells co-infected with baculoviruses
Test: CDK2 inhibitory activity (CDK2/cyclin A, [gamma-32P] ATP, histon H1 or Rb protein substrate)
Type: biochemical
Conditions: first IC50 column (c1) of Table 1
Source text: CDK2 enzyme was obtained from either extract from the worm cell co-infected with baculovirus which expresses a CDK2 gene and baculovirus which expresses a cyclin A gene, or active enzyme purified therefrom. CDK4 was also obtained from either extract from the worm cell co-infected with baculovirus which expresses a CDK4 gene and baculovirus which expresses a cyclin D1 gene. As substrates, histon H1 or Rb protein was used for CDK2, and Rb protein for CDK4. The radioactive activities in substrates were determined by reacting compounds diluted with each concentration with a proper quantity of CDK2/cyclin A or CDK4/cyclin D1 and substrate protein, and [gamma-32P labeled] ATP, and then separating the substrates.
Inhibitory abilities of inhibitors according to the present invention for each enzyme activity were expressed as IC50 values, which were determined in accordance with the method as described above.

Row | SMILES | IC50
1 | O=C(Cc1ccc(-c2ccco2)cc1)Nc1n[nH]c2ccc(N3CCCS3(=O)=O)cc12 [Compound 39, N-[5-(1,1-dioxo-1λ^6-isothiazolidin-2-yl)-1H-indazol-3-yl]-2-[4-(2-furyl)phenyl]acetamide] | < 50 nM
2 | O=C(Cc1ccc(-c2ccccc2)cc1)Nc1n[nH]c2ccc(N3CCCS3(=O)=O)cc12 [Compound 10, 2-[1,1′-biphenyl]-4-yl-N-[5-(1,1-dioxo-1λ^6-isothiazolidin-2-yl)-1H-indazol-3-yl]acetamide] | < 50 nM
3 | O=C(Cn1cnc(-c2ccc(Br)cc2)c1)Nc1n[nH]c2ccc(N3CCCS3(=O)=O)cc12 [Compound 61, 2-[4-(4-bromophenyl)-1H-imidazol-1-yl]-N-[5-(1,1-dioxo-1λ^6-isothiazolidin-2-yl)-1H-indazol-3-yl]acetamide] | < 100 nM
4 | O=C(Nc1n[nH]c2ccc(N3CCCS3(=O)=O)cc12)C(c1ccccc1)C1CCCC1 (stereo not shown) [Compound 56, 2-cyclopentyl-N-[5-(1,1-dioxo-1λ^6-isothiazolidin-2-yl)-1H-indazol-3-yl]-2-phenylacetamide] | < 100000 nM
5 | O=S1(=O)CCCN1c1ccc2[nH]nc(NC(Cc3ccccc3)=NO)c2c1 [Compound 14, N-[5-(1,1-dioxo-1λ^6-isothiazolidin-2-yl)-1H-indazol-3-yl]-N′-hydroxy-2-phenylethaneimidoamide] | < 10000 nM
6 | O=C(Cc1ccc(OCc2ccccc2)cc1)Nc1n[nH]c2ccc(N3CCCS3(=O)=O)cc12 [Compound 3, 2-[4-(benzyloxy)phenyl]-N-[5-(1,1-dioxo-1λ^6-isothiazolidin-2-yl)-1H-indazol-3-yl]acetamide] | < 100 nM
7 | CCN(CC)c1ccc(CC(=O)Nc2n[nH]c3ccc(N4CCCS4(=O)=O)cc23)cc1 [Compound 73, 2-[4-(diethylamino)phenyl]-N-[5-(1,1-dioxo-1λ^6-isothiazolidin-2-yl)-1H-indazol-3-yl]acetamide] | < 50 nM
8 | CCC(C(=O)Nc1n[nH]c2ccc(N3CCCS3(=O)=O)cc12)c1ccccc1 (stereo not shown) [Compound 57, N-[5-(1,1-dioxo-1λ^6-isothiazolidin-2-yl)-1H-indazol-3-yl]-2-phenylbutanamide] | < 100000 nM
9 | CCN(CC)c1cccc(CC(=O)Nc2n[nH]c3ccc(N4CCCS4(=O)=O)cc23)c1 [Compound 70, 2-[3-(diethylamino)phenyl]-N-[5-(1,1-dioxo-1λ^6-isothiazolidin-2-yl)-1H-indazol-3-yl]acetamide] | < 500 nM
10 | CC(=O)Nc1nc(CC(=O)Nc2n[nH]c3ccc(N4CCCS4(=O)=O)cc23)cs1 [Compound 76] | < 10000 nM
11 | O=C(Cc1ccc(Cl)cc1)Nc1n[nH]c2ccc(N3CCCS3(=O)=O)cc12 [Compound 8, 2-(4-chlorophenyl)-N-[5-(1,1-dioxo-1λ^6-isothiazolidin-2-yl)-1H-indazol-3-yl]acetamide] | < 50 nM
12 | CCOc1ccc(CC(=O)Nc2n[nH]c3ccc(N4CCCS4(=O)=O)cc23)cc1S(N)(=O)=O [Compound 80, 2-[3-(aminosulfonyl)-4-ethoxyphenyl]-N-[5-(1,1-dioxo-1λ^6-isothiazolidin-2-yl)-1H-indazol-3-yl]acetamide] | < 1000 nM
13 | O=C(Cc1ccc(Oc2ccccc2)cc1)Nc1n[nH]c2ccc(N3CCCS3(=O)=O)cc12 [Compound 54, N-[5-(1,1-dioxo-1λ^6-isothiazolidin-2-yl)-1H-indazol-3-yl]-2-(4-phenoxyphenyl)acetamide] | < 100 nM
14 | O=C(CN1CCCCC1)Nc1n[nH]c2ccc(N3CCCS3(=O)=O)cc12 [Compound 32, N-[5-(1,1-dioxo-1λ^6-isothiazolidin-2-yl)-1H-indazol-3-yl]-2-(1-piperidinyl)acetamide] | < 10000 nM
15 | COc1ccc(N2CCN(CC(=O)Nc3n[nH]c4ccc(N5CCCS5(=O)=O)cc34)CC2)cc1 [Compound 51, N-[5-(1,1-dioxo-1λ^6-isothiazolidin-2-yl)-1H-indazol-3-yl]-2-[4-(4-methoxyphenyl)-1-piperazinyl]acetamide] | < 10000 nM
16 | O=C(Cn1cnc2ccccc21)Nc1n[nH]c2ccc(N3CCCS3(=O)=O)cc12 [Compound 41, 2-(1H-benzimidazol-1-yl)-N-[5-(1,1-dioxo-1λ^6-isothiazolidin-2-yl)-1H-indazol-3-yl]acetamide] | < 50 nM
17 | Nc1nc(CC(=O)Nc2n[nH]c3ccc(N4CCCS4(=O)=O)cc23)cs1 [Compound 60, 2-(2-amino-1,3-thiazol-4-yl)-N-[5-(1,1-dioxo-1λ^6-isothiazolidin-2-yl)-1H-indazol-3-yl]acetamide] | < 500 nM

Continued, values first:

Row | IC50 | SMILES
18 | < 50 nM | O=C(Cc1ccc(Cl)c(Cl)c1)Nc1n[nH]c2ccc(N3CCCS3(=O)=O)cc12 [Compound 24, 2-(3,4-dichlorophenyl)-N-[5-(1,1-dioxo-1λ^6-isothiazolidin-2-yl)-1H-indazol-3-yl]acetamide]
19 | < 50 nM | O=C(Cc1ccc2c(c1)OCO2)Nc1n[nH]c2ccc(N3CCCS3(=O)=O)cc12 [Compound 15, 2-(1,3-benzodioxol-5-yl)-N-[5-(1,1-dioxo-1λ^6-isothiazolidin-2-yl)-1H-indazole-3-yl]acetamide]
20 | < 1000 nM | O=C(CN1CCc2ccccc2C1)Nc1n[nH]c2ccc(N3CCCS3(=O)=O)cc12 [Compound 49, 2-[3,4-dihydro-2(1H)-isoquinolinyl]-N-[5-(1,1-dioxo-1λ^6-isothiazolidin-2-yl)-1H-indazol-3-yl]acetamide]
21 | < 500 nM | CCNc1nc(CC(=O)Nc2n[nH]c3ccc(N4CCCS4(=O)=O)cc23)cs1 [Compound 64, N-[5-(1,1-dioxo-1λ^6-isothiazolidin-2-yl)-1H-indazol-3-yl]-2-[2-(ethylamino)-1,3-thiazol-4-yl]acetamide]
22 | < 10000 nM | O=C(CN1CCOCC1)Nc1n[nH]c2ccc(N3CCCS3(=O)=O)cc12 [Compound 31, N-[5-(1,1-dioxo-1λ^6-isothiazolidin-2-yl)-1H-indazol-3-yl]-2-(4-morpholinyl)acetamide]
23 | < 50 nM | O=C(Cc1cccc(Cl)c1)Nc1n[nH]c2ccc(N3CCCS3(=O)=O)cc12 [Compound 2, 2-(3-chlorophenyl)-N-[5-(1,1-dioxo-1λ^6-isothiazolidin-2-yl)-1H-indazol-3-yl]acetamide]
24 | < 50 nM | COc1cc(CC(=O)Nc2n[nH]c3ccc(N4CCCS4(=O)=O)cc23)cc(OC)c1 [Compound 71, 2-(3,5-dimethoxyphenyl)-N-[5-(1,1-dioxo-1λ^6-isothiazolidin-2-yl)-1H-indazol-3-yl]acetamide]
25 | < 50 nM | O=C(Cn1cnc(-c2ccccc2)c1)Nc1n[nH]c2ccc(N3CCCS3(=O)=O)cc12 [Compound 47, N-[5-(1,1-dioxo-1λ^6-isothiazolidin-2-yl)-1H-indazol-3-yl]-2-(4-phenyl-1H-imidazol-1-yl)acetamide]
26 | < 50 nM | O=C(Cc1ccc(F)cc1)Nc1n[nH]c2ccc(N3CCCS3(=O)=O)cc12 [Compound 9, N-[5-(1,1-dioxo-1λ^6-isothiazolidin-2-yl)-1H-indazol-3-yl]-2-(4-fluorophenyl)acetamide]
27 | < 50 nM | CC(C)c1ccc(CC(=O)Nc2n[nH]c3ccc(N4CCCS4(=O)=O)cc23)cc1 [Compound 26, N-[5-(1,1-dioxo-1λ^6-isothiazolidin-2-yl)-1H-indazol-3-yl]-2-(4-isopropylphenyl)acetamide]
28 | < 100 nM | CC(C)(C)OC(=O)Nc1nc(CC(=O)Nc2n[nH]c3ccc(N4CCCS4(=O)=O)cc23)cs1 [Compound 58, t-butyl 4-(2-[5-(1,1-dioxo-1λ^6-isothiazolidin-2-yl)-1H-indazol-3-yl]amino-2-oxoethyl)-1,3-thiazol-2-ylcarbamate]
29 | < 100 nM | CCOc1ccc(CC(=O)Nc2n[nH]c3ccc(N4CCCS4(=O)=O)cc23)cc1Cl [Compound 74, 2-(3-chloro-4-ethoxyphenyl)-N-[5-(1,1-dioxo-1λ^6-isothiazolidin-2-yl)-1H-indazol-3-yl]acetamide]
30 | < 50 nM | CSc1ccc(CC(=O)Nc2n[nH]c3ccc(N4CCCS4(=O)=O)cc23)cc1 [Compound 20, N-[5-(1,1-dioxo-1λ^6-isothiazolidin-2-yl)-1H-indazol-3-yl]-2-[4-(methylsulfanil)phenyl]acetamide]
31 | < 50000 nM | CC(=S)Nc1n[nH]c2ccc(N3CCCS3(=O)=O)cc12 [Compound 22, N-[5-(1,1-dioxo-1λ^6-isothiazolidin-2-yl)-1H-indazol-3-yl]ethanethioamide]
32 | < 50 nM | O=C(Cc1ccc(-c2ccsc2)cc1)Nc1n[nH]c2ccc(N3CCCS3(=O)=O)cc12 [Compound 36, N-[5-(1,1-dioxo-1λ^6-isothiazolidin-2-yl)-1H-indazol-3-yl]-2-[4-(3-thienyl)phenyl]acetamide]
33 | < 500 nM | CCN(CC)c1nc(CC(=O)Nc2n[nH]c3ccc(N4CCCS4(=O)=O)cc23)cs1 [Compound 65, 2-[2-(diethylamino)-1,3-thiazol-4-yl]-N-[5-(1,1-dioxo-1λ^6-isothiazolidin-2-yl)-1H-indazol-3-yl]acetamide]
34 | > 100000 nM | CC(=O)Nc1n[nH]c2ccc(N3CCCS3(=O)=O)cc12 [Compound 19, N-[5-(1,1-dioxo-1λ^6-isothiazolidin-2-yl)-1H-indazol-3-yl]acetamide]
35 | < 100 nM | Cc1ccccc1CC(=O)Nc1n[nH]c2ccc(N3CCCS3(=O)=O)cc12 [Compound 68, N-[5-(1,1-dioxo-1λ^6-isothiazolidin-2-yl)-1H-indazol-3-yl]-2-(2-methylphenyl)acetamide]
36 | < 50 nM | Nc1ccc(CC(=O)Nc2n[nH]c3ccc(N4CCCS4(=O)=O)cc23)cc1 [Compound 7, 2-(4-aminophenyl)-N-[5-(1,1-dioxo-1λ^6-isothiazolidin-2-yl)-1H-indazol-3-yl]acetamide]
37 | < 1000 nM | NCCOc1ccc(CC(=O)Nc2n[nH]c3ccc(N4CCCS4(=O)=O)cc23)cc1 [Compound 82, 2-[4-(2-aminoethoxy)phenyl]-N-[5-(1,1-dioxo-1λ^6-isothiazolidin-2-yl)-1H-indazol-3-yl]acetamide]
